We go through 37 compounds from ChEMBL document CHEMBL1157533 (J Med Chem, 2008).

The nature of series [1]: Protein binding in Beagle dog serum. It is filed as ADME, cell-free, Canis lupus familiaris. To be noted: read-out: PPB (converted).
Series [2] concerns the target Beta-1 adrenergic receptor (Homo sapiens, UniProt P08588). Put plainly: Agonist activity at human recombinant beta-1 adrenergic receptor expressed in CHO cells assessed as cAMP accumulation by enzyme immuno assay. It is filed as functional, cell-based. (cAMP levels reflect the balance of adenylyl cyclase and phosphodiesterase activity.)
The target of series [3] is Beta-3 adrenergic receptor (Homo sapiens, UniProt P13945). Put plainly: Agonist activity at human recombinant beta3 adrenergic receptor expressed in CHO cells assessed as cAMP accumulation by enzyme immuno assay. It is filed as functional, cell-based.
Sequence of Beta-3 adrenergic receptor (P13945 whole entry): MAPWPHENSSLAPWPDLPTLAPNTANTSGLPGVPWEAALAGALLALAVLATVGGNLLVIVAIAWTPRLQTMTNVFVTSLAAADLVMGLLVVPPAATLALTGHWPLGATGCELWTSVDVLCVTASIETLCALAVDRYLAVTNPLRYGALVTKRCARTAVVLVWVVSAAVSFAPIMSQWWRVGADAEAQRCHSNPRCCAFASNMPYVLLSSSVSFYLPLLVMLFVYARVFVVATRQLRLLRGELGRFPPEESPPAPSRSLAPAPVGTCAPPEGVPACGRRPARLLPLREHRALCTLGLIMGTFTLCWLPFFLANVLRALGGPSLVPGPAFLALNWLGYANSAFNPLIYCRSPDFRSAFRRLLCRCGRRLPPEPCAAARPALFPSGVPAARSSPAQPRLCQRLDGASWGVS
Series [4] has as its target Beta-2 adrenergic receptor (Homo sapiens, UniProt P07550). Put plainly: Agonist activity at human recombinant beta2 adrenergic receptor expressed in CHO cells assessed as cAMP accumulation by enzyme immuno assay. The format is functional, cell-based.
Series [5] can be described thus: AUC (0 to 2 hrs) in Beagle dog at 0.1 mg/kg, po by cassette assay. It is filed as ADME, organism-based, Canis lupus familiaris. The arrangement: time < 2 hr, dose 0.1 mg/kg, route oral. To be noted: plasma.
Series [6] in a line: Terminal half life in Beagle dog at 0.1 mg/kg, iv by cassette assay. It is filed as ADME, organism-based, Canis lupus familiaris. The arrangement: dose 0.1 mg/kg, route intravenous. The settings on record: in vivo, read-out: beta t1/2 (converted).
A short description of series [7]: Volume of distribution at steady state in Beagle dog at 0.1 mg/kg, iv by cassette assay. The arrangement: dose 0.1 mg/kg, route intravenous. To be noted: in vivo, read-out: Vdss. The format is ADME, organism-based, Canis lupus familiaris.
The nature of series [8]: AUC (0 to 24 hrs) in Beagle dog at 0.1 mg/kg, iv by cassette assay. It is filed as ADME, organism-based, Canis lupus familiaris. The arrangement: time < 24 hr, dose 0.1 mg/kg, route intravenous. The settings on record: plasma.
Series [9] can be described thus: Total clearance in Beagle dog at 0.1 mg/kg, iv by cassette assay. The format is ADME, organism-based, Canis lupus familiaris. On the set-up: dose 0.1 mg/kg, route intravenous. To be noted: in vivo.
The nature of series [10]: Bioavailability in Beagle dog at 0.1 mg/kg, po by cassette assay. To be noted: in vivo. It is filed as ADME, organism-based, Canis lupus familiaris.
Series [11] can be described thus: Metabolic stability assessed as intrinsic clearance in dog liver microsome in presence of NADPH-generating system. The format is ADME, Canis lupus familiaris. To be noted: liver microsomes. On the technique in general: Liver microsomes are a subcellular fraction often used to study metabolism.

As usually defined, the EC50 is the midpoint of the concentration-response curve. A word on the AUC(0-t): it is exposure summed from dosing to a finite time, without extrapolation to infinity. The low end stands for less exposure, the high end for more exposure. Usually clearance stands for the rate of elimination divided by the concentration. A low value points to inefficient removal. What is called bioavailability is the share of a dose that reaches the circulation, judged against a reference dose that is usually intravenous. For orientation: CLint scaled means the rate of metabolic loss divided by the concentration.

Sequence of Beta-2 adrenergic receptor (P07550 whole entry): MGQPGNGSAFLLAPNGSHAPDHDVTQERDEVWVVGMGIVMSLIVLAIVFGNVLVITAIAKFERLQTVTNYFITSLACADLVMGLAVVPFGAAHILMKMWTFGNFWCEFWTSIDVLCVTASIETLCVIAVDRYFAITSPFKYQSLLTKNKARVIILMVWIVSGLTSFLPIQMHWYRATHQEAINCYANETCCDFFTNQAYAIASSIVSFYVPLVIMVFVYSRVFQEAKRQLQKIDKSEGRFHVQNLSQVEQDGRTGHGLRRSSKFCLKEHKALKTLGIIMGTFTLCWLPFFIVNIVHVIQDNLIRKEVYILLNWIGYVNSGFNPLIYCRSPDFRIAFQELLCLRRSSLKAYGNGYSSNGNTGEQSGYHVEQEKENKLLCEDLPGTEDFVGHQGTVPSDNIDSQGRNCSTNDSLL
Sequence of Beta-1 adrenergic receptor (P08588 whole entry): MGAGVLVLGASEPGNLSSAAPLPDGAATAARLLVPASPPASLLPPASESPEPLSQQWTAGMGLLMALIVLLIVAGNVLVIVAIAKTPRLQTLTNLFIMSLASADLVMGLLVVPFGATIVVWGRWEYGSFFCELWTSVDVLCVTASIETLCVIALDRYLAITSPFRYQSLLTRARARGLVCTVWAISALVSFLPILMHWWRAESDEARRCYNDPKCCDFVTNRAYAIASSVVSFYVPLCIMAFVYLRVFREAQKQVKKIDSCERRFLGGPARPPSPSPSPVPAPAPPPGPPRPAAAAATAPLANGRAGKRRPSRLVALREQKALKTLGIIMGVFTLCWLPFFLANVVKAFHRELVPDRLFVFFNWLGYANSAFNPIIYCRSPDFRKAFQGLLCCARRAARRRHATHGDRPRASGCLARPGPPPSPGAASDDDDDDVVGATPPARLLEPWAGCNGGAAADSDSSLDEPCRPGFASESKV

`CC(C)Oc1cc(-c2ccc(CCNC[C@H](O)c3ccccc3)cc2)ccc1C(=O)O`: the fraction unbound in series [1] is 0.14.

As to `CC(C)Cc1cc(-c2ccc(CCN[C@@H](C)[C@H](O)c3ccccc3)cc2)ccc1C(=O)O`, the EC50 in series [2] was 300 nM; in series [3] it was 0.14 nM.

Consider `CC(C)Oc1cc(-c2ccc(OCCNC[C@H](O)c3cccc(Cl)c3)cc2)ccc1C(=O)O`, for which the EC50 stood at 84 nM in [2] and 0.5 nM in series [3].

For the compound `CC(C)COc1cc(-c2ccc(OCCNC[C@H](O)c3cccc(Cl)c3)cc2)ccc1C(=O)O`, the EC50 in series [2] was 110 nM; in [3], 0.32 nM.

For `CC(C)Oc1cc(-c2ccc(C[C@@H](C)NC[C@H](O)c3cccnc3)cc2)ccc1C(=O)O`, the EC50 in series [2] is 80 nM; in series [3], 0.099 nM; in series [4], > 1000 nM.

As for `CCCOc1cc(-c2ccc(CCN[C@@H](C)[C@H](O)c3ccccc3)cc2)ccc1C(=O)O`, the EC50 is 690 nM in [2], 0.43 nM in series [3] and > 10000 nM in series [4].

For the compound `C[C@H](Cc1ccc(-c2ccc(C(=O)O)c(OC3CCCCC3)c2)cc1)NC[C@H](O)c1cccnc1`, the EC50 was 24 nM in series [2] and 0.069 nM in series [3].

Turning to `CC(C)COc1cc(-c2ccc(C[C@@H](C)NC[C@H](O)c3ccccc3)cc2)ccc1C(=O)O`, the EC50 in [2] stood at 130 nM; in series [3] it was 0.041 nM. In addition, the AUC(0-t) at 2 h in series [5] is 0.2 ng·h/mL. In addition, the half-life in series [6] is 17.7 h. The Vd in series [7] is 30.8 L/kg. This compound also returned an AUC(0-t) at 24 h in series [8] of 44.5 ng·h/mL. For the same compound, the clearance in [9] stood at 39 mL/min/kg. The same compound returned a bioavailability in series [10] of 0.4%.

For the compound `CC(C)Oc1cc(-c2ccc(CC(C)(C)NC[C@H](O)c3ccccc3)cc2)ccc1C(=O)O`, the values for the EC50 in series [2] and in series [3] were 280 nM and 0.91 nM, respectively.

On to `CC(C)Cc1cc(-c2ccc(OCCNC[C@H](O)c3cccc(Cl)c3)cc2)ccc1C(=O)O`, for which the values for the EC50 in series [2] and in series [3] were 15 nM and 0.68 nM, respectively.

In the case of `CC(C)Oc1cc(-c2ccc(C[C@H](CO)NC[C@H](O)c3ccccc3)cc2)ccc1C(=O)O`, the EC50 is > 1000 nM in series [2] and 7.4 nM in [3].

Consider `CCCOc1cc(-c2ccc(NCCNC[C@H](O)c3cccc(Cl)c3)cc2)ccc1C(=O)O`, for which the 50% effective concentration (EC50) was 11 nM in [2] and 0.21 nM in [3].

As for `O=C(O)c1ccc(-c2ccc(OCCNC[C@H](O)c3ccccc3)cc2)cc1OC1CCCCC1`, the values for the EC50 in [2] and in [3] were 91 nM and 0.16 nM, respectively.

With `CCCOc1cc(-c2ccc(CCCNC[C@H](O)c3cccc(Cl)c3)cc2)ccc1C(=O)O`, the EC50 in series [2] worked out at 180 nM; in series [3], 0.7 nM.

With `CCCOc1cc(-c2ccc(OCCNC[C@H](O)c3ccccc3)cc2)ccc1C(=O)O`, the EC50 is 210 nM in series [2] and 1.2 nM in series [3].

As for `CC(C)COc1cc(-c2ccc(OCCNC[C@H](O)c3ccccc3)cc2)ccc1C(=O)O`, the EC50 came out at 400 nM in series [2] and 0.55 nM in series [3].

As to `CC(C)Oc1cc(-c2ccc(CCNC[C@H](O)c3ccc(Cl)cc3)cc2)ccc1C(=O)O`, the values for the EC50 in [2] and in series [3] were 500 nM and 2.4 nM, respectively.

Take `O=C(O)c1ccc(-c2ccc(OCCNC[C@H](O)c3cccc(Cl)c3)cc2)cc1OC1CCCCC1`: the values for the 50% effective concentration (EC50) in series [2] and in series [3] were 52 nM and 0.27 nM, respectively.

On to `CC(C)Oc1cc(-c2ccc(CCNC[C@H](O)c3cccc(N)c3)cc2)ccc1C(=O)O`, for which the EC50 in [2] is > 1000 nM; in series [3] it was 8.1 nM.

For the compound `CC(C)Oc1cc(-c2ccc(CCNC[C@H](O)c3ccc(N)cc3)cc2)ccc1C(=O)O`, the EC50 is > 1000 nM in [2] and 2.6 nM in series [3].

Regarding `CC(C)Oc1cc(-c2ccc(CCNC[C@H](O)c3cccc(NS(C)(=O)=O)c3)cc2)ccc1C(=O)O`, the EC50 in [2] is > 1000 nM; in series [3] it was 30 nM.

Take `CC(C)Oc1cc(-c2ccc(C[C@@H](C)NC[C@H](O)c3cccc(Cl)c3)cc2)ccc1C(=O)O`: the figures for the concentration giving a half-maximal response (EC50) in series [2] and in series [3] were 37 nM and 0.19 nM, respectively.

Consider `CCOc1cc(-c2ccc(C[C@@H](C)NC[C@H](O)c3ccccc3)cc2)ccc1C(=O)O`, for which the figures for the half-maximal effective concentration (EC50) in [2] and in series [3] were 62 nM and 0.31 nM, respectively. This compound also came in with an AUC(0-t) at 2 h in series [5] of 350 ng·h/mL. In [6], the half-life is 9.9 h. Further, the Vd in [7] stood at 1.9 L/kg. Also, the AUC(0-t) at 24 h in [8] was 477 ng·h/mL. Further, in series [9], the clearance came to 3.5 mL/min/kg. The compound also had a bioavailability in series [10] of 73%.

`CC(C)Oc1cc(-c2ccc(CCNC[C@H](O)c3ccc(N)nc3)cc2)ccc1C(=O)O`: the EC50 in [2] was 130 nM; in [3], 0.19 nM; in series [4], > 10000 nM.

Take `C[C@H](Cc1ccc(-c2ccc(C(=O)O)cc2)cc1)NC[C@H](O)c1cccc(Cl)c1`: the EC50 in [2] amounted to 13 nM; in series [3], 0.18 nM.

Consider `C[C@@H](Cc1ccc(-c2ccc(C(=O)O)cc2)cc1)NC[C@H](O)c1cccc(Cl)c1`, for which the values for the EC50 in series [2] and in series [3] were 12 nM and 6 nM, respectively.

`C[C@H](Cc1ccc(-c2ccc(C(=O)O)cc2)cc1)NC[C@H](O)c1ccccc1`: the results for the EC50 in [2], in series [3] and in series [4] were 22 nM, 0.3 nM and > 1000 nM, respectively.

`C[C@H](Cc1ccc(-c2ccc(C(=O)O)c(OC3CCCCC3)c2)cc1)NC[C@H](O)c1ccccc1`: the EC50 in [2] stood at 28 nM; in [3] it was 0.042 nM. Moreover, the half-life in series [6] was 0.35 h. The Vd in [7] is 1.13 L/kg. In series [8], this compound showed an area under the curve AUC(0-t) at 24 h of 24.3 ng·h/mL. Also, the clearance in [9] is 68.9 mL/min/kg. This compound also returned a bioavailability in [10] of 0%. Also, the CLint scaled in [11] is < 0.1 mL/min/kg.

Regarding `CC(C)Oc1cc(-c2ccc(CCN[C@@H](C)[C@H](O)c3ccc(O)cc3)cc2)ccc1C(=O)O`, the EC50 in series [2] was found to be 500 nM; in series [3], 0.14 nM.

`CC(C)Oc1cc(-c2ccc(CCNC[C@H](O)c3ccc(O)c(NS(C)(=O)=O)c3)cc2)ccc1C(=O)O`: the EC50 amounted to 150 nM in series [2] and 0.26 nM in series [3].

On to `CC(C)Oc1cc(-c2ccc(OCCNC[C@H](O)c3ccccc3)cc2)ccc1C(=O)O`, for which the EC50 in series [2] was 510 nM; in series [3] it was 2.4 nM.

Regarding `CC(C)Oc1cc(-c2ccc(CCNC[C@H](O)c3cccc(F)c3)cc2)ccc1C(=O)O`, the results for the EC50 in series [2] and in series [3] were 320 nM and 2.1 nM, respectively.

For `CC(C)Oc1cc(-c2ccc(CCNC[C@H](O)c3cccc(O)c3)cc2)ccc1C(=O)O`, the EC50 was found to be 440 nM in series [2] and 0.062 nM in series [3].

On to `COc1cc(-c2ccc(C[C@@H](C)NC[C@H](O)c3ccccc3)cc2)ccc1C(=O)O`, for which the EC50 worked out at 83 nM in series [2] and 0.79 nM in series [3].

Turning to `CC(C)Cc1cc(-c2ccc(CCNC[C@H](O)c3cccnc3)cc2)ccc1C(=O)O`, the values for the EC50 in series [2] and in series [3] were > 1000 nM and 0.26 nM, respectively.

Take `Nc1ccc([C@@H](O)CNCCc2ccc(-c3ccc(C(=O)O)c(OC4CCCCC4)c3)cc2)cn1`: the figures for the EC50 in series [2], in series [3] and in series [4] were 39 nM, 0.035 nM and 1100 nM, respectively.

`CCOC(=O)COc1ccc2c(c1)C[C@@H](NC[C@H](O)c1cccc(Cl)c1)CCC2`: the fraction unbound in series [1] was 0.06.
